In brackets after ≈: the same amount, converted by molar mass.
Experiments:
[1] = Solubility of Que in release medium; format: physicochemical; conditions: PBS containing 0.1% (w/v) Tween 80 (pH 7.4)
[2] = parameters: method as in Xiao et al., 2005; conditions: ref Xiao et al., 2005, cited from earlier work
[3] = parameters: method as in Justino et al., 2004; conditions: rats, single oral 10 mg quercetin/200 g body weight, an hour later; ref Justino et al., 2004; cited from earlier work
[4] = parameters: method as in Xiao et al., 2005; conditions: rats, radiolabeled quercetin by gavage, free or metabolized; ref Xiao et al., 2005; cited from earlier work
[5] = parameters: method as in Bi et al., 2019; conditions: piperine as a bioenhancer; ref Bi et al., 2019; cited from earlier work

SMILES | solubility [1] [µg/mL] | Solubility in artificial gastric juice ([2]; artificial gastric juice) [µg/mL] | Solubility in artificial intestinal juice ([2]; artificial intestinal juice) [µg/mL] | Solubility in water ([2]; water) | Quercetin metabolized [3] [%] | Total quercetin absorbed [4] [%] | Bioavailability of silybin [5]
O=c1c(O)c(-c2ccc(O)c(O)c2)oc2cc(O)cc(O)c12 [Quercetin, 3,3′,4′,5,7-pentahydroxyflavone] | 30 (≈ 99.3 µM) | 5.5 (≈ 18.2 µM) | 28.9 (≈ 95.6 µM) | about 0.09 μg/mL | 93 | 20 | –
O=C(/C=C/C=C/c1ccc2c(c1)OCO2)N1CCCCC1 [piperine, Piperine] | – | – | – | – | – | – | 146–181%

— publication PMC8218931, “Enhancement of oral bioavailability of quercetin by metabolic inhibitory nanosuspensions compared to conventional nanosuspensions” (Drug Delivery, 2021)
